{
  "source": "patent EP1799188B1",
  "about": "“USE OF PEPTIDES AS AN ANTIOXIDANT AGENT FOR THE PREPARATION OF A COSMETIC AND/OR PHARMACEUTICAL COMPOSITION” (Ashland Specialties France, priority 2004, dated 2015)",
  "test_system": "fibroblastes primaires",
  "experiment": "Neutral red uptake cytotoxicity / cell viability test",
  "type": "cell-based",
  "conditions": "actif 1 %",
  "experimental": "Des fibroblastes primaires sont ensemencés sur une plaque 96 puits (à 20000 cellules par puits environ). Une fois que les cellules ont atteint 70 % de confluence, le dipeptide dimérisé Cys-Gly selon l'invention, dilué à 1 %, est appliqué sur la plaque durant 24 heures. Une moitié de la plaque est alors irradiée par des UVB à 100 mJ/cm^2 et l'autre moitié non irradiée. Les cellules sont ensuite remises en culture pendant 24 h en présence de l'actif, puis incubées en présence de rouge neutre.\nLe rouge neutre (un colorant « supravital ») se fixe spécifiquement aux lysosomes des cellules vivantes, la coloration sera ainsi proportionnelle à la viabilité des cellules. Après l'ajout d'une solution de révélation, solubilisant le rouge neutre, l'absorbance est mesurée à 540 nm.\nLes résultats obtenus, représentés dans le tableau ci-dessous, représentent le pourcentage de viabilité cellulaire en fonction des différentes conditions étudiées, par rapport à la condition contrôle.",
  "data": [
    {"smiles": "N[C@@H](CSSC[C@H](N)C(=O)NCC(=O)O)C(=O)NCC(=O)O", "note": "[actif]", "values": [
      {"measurement": "cytotoxicité (nocivité pour les cellules)", "result": "n'est pas nocif pour les cellules"}
    ]}
  ]
}
